Measured values taken from the supplement of paper PMC13380429.

What was measured:
Conditions in all cases: 72 h
U2OS [1] = experiment: relative viability EC50 (midpoint between 100% and the lowest measured viability); higher = less toxic
Calu-3 [2] = experiment: as above
Vero E6 [3] = experiment: as above
U2OS [4] = experiment: drug sensitivity score (DSS) for viability; higher = more toxic; extreme values may be limits of the assay
Caco-2 [5] = experiment: as above
HepG2 [6] = experiment: as above
Calu-3 [7] = experiment: as above
Vero E6 [8] = experiment: as above
U2OS [9] = experiment: cell viability relative to DMSO; higher = less toxic
Caco-2 [10] = experiment: as above
HepG2 [11] = experiment: as above
Calu-3 [12] = experiment: as above
Vero E6 [13] = experiment: as above
Caco-2 [14] = experiment: relative viability EC50 (midpoint between 100% and the lowest measured viability); higher = less toxic
HepG2 [15] = experiment: as above

Structure (SMILES)	relative viability EC50 (U2OS [1]) [µM]	relative viability EC50 (Calu-3 [2]) [µM]	relative viability EC50 (Vero E6 [3]) [µM]	drug sensitivity score (U2OS [4])	drug sensitivity score (Caco-2 [5])	drug sensitivity score (HepG2 [6])	drug sensitivity score (Calu-3 [7])	drug sensitivity score (Vero E6 [8])	cell viability (U2OS [9]; 1 nM) [%]	cell viability (U2OS [9]; 10 nM) [%]	cell viability (U2OS [9]; 100 nM) [%]	cell viability (U2OS [9]; 1000 nM) [%]	cell viability (U2OS [9]; 10000 nM) [%]	cell viability (Caco-2 [10]; 1 nM) [%]	cell viability (Caco-2 [10]; 10 nM) [%]	cell viability (Caco-2 [10]; 100 nM) [%]	cell viability (Caco-2 [10]; 1000 nM) [%]	cell viability (Caco-2 [10]; 10000 nM) [%]	cell viability (HepG2 [11]; 1 nM) [%]	cell viability (HepG2 [11]; 10 nM) [%]	cell viability (HepG2 [11]; 100 nM) [%]	cell viability (HepG2 [11]; 1000 nM) [%]	cell viability (HepG2 [11]; 10000 nM) [%]	cell viability (Calu-3 [12]; 1 nM) [%]	cell viability (Calu-3 [12]; 10 nM) [%]	cell viability (Calu-3 [12]; 100 nM) [%]	cell viability (Calu-3 [12]; 1000 nM) [%]	cell viability (Calu-3 [12]; 10000 nM) [%]	cell viability (Vero E6 [13]; 1 nM) [%]	cell viability (Vero E6 [13]; 10 nM) [%]	cell viability (Vero E6 [13]; 100 nM) [%]	cell viability (Vero E6 [13]; 1000 nM) [%]	cell viability (Vero E6 [13]; 10000 nM) [%]	relative viability EC50 (Caco-2 [14]) [µM]	relative viability EC50 (HepG2 [15]) [µM]
CN1CCC(Nc2ncc3ncnc(Nc4ccc(F)c(Cl)c4)c3n2)CC1 [BIBX-1382]	> 10	1.21	0.634	0.4	4.4	2.1	7.6	8.4	99.4	104	95.9	98.9	83.8	99	104	85.4	81.4	63.3	102	93.6	98.8	95.8	68.3	101	115	95.8	70.2	27.4	104	104	90.1	61.7	36.2	–	–
Cc1ccnc2c1CCCC2C(N)=S (stereo not drawn) [isotiquimide]	> 10	> 10	–	0	0	0	0	–	102	97.4	100	101	102	106	102	99.9	96	110	103	100	92.4	99.4	98.6	95.1	86.7	98.1	107	106	–	–	–	–	–	> 10	> 10
COc1cc2c(Oc3ccc4[nH]c(C)cc4c3F)ccnc2cc1OCC1(N)CC1 [anlotinib]	–	> 10	> 10	2.4	1.8	1.8	0.2	0.5	95.1	102	96.9	99.4	54.7	91.7	93.8	94.4	87.4	76.2	106	99.6	101	103	59.2	94.8	93.4	99.3	100	84.5	91.2	98.6	97	95.2	84.4	> 10	–
COc1cc2ncnc(Nc3cccc(Cl)c3F)c2cc1OC(=O)N1CCN(C)C[C@H]1C [AZD3759]	> 10	0.442	–	0	1.1	0	10.6	9.3	96.8	101	95.6	95.6	92.8	94.4	91.1	91.2	90.1	81.9	101	86.6	104	95.8	101	86.5	93.6	93.1	48.4	32.2	94.7	90.3	81.8	60.8	51.6	> 10	> 10
COC[C@H](C)Oc1cc(O[C@@H](C)Cc2ccccc2)cc(C(=O)Nc2ccc(C(=O)O)cn2)c1 [GKA-50]	> 10	> 10	–	0	0	0	0	–	103	104	103	99.4	98.8	100	97	96.2	96.2	92.7	112	105	99.5	120	113	96.9	103	97.8	107	98.2	–	–	–	–	–	> 10	> 10
CC(C(=O)O)c1cccc(Oc2ccccc2)c1 (stereo not drawn) [fenoprofen]	> 10	> 10	> 10	0	0	–	0	0	96.7	99.9	97.5	103	105	98.4	93.5	98.7	101	108	–	–	–	–	–	98.1	112	111	103	103	101	94	95.3	88.7	112	> 10	–
C[C@H](NC(=O)[C@@H](Cc1c[nH]c2ccccc12)NC(=O)[C@@H](N)Cc1c[nH]cn1)C(=O)N[C@@H](Cc1c[nH]c2ccccc12)C(=O)N[C@H](Cc1ccccc1)C(=O)N[C@@H](CCCCN)C(N)=O	–	> 10	> 10	–	0	–	0	0	–	–	–	–	–	92	97	98.7	99.6	110	–	–	–	–	–	94.6	109	107	107	99.1	108	100	99.1	100	102	> 10	–
CCn1cc(C(=O)O)c(=O)c2cnc(N3CCNCC3)nc21 [pipemidic-acid]	> 10	> 10	–	0	0	0	0	–	98.7	101	97.4	104	100	94.2	102	95.5	99.4	92.9	110	108	107	99.8	102	107	99.1	103	96.9	91.9	–	–	–	–	–	> 10	> 10
